Source: PubChem BioAssay (NCI)
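In this assay, cells in 96-well plates receive the compound at five concentrations for 48 hours. Endpoints are linearly interpolated between the surrounding concentrations. Definition used: TGI = concentration required for complete inhibition of growth.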

Experiments:
Test in all cases: DTP human tumour cell line panel, 48 h
SW-620 colon = test system: SW-620 colon
MDA-MB-231 breast = test system: MDA-MB-231 breast
MDA-MB-435 = test system: MDA-MB-435
OVCAR-3 ovarian = test system: OVCAR-3 ovarian
TK-10 renal = test system: TK-10 renal
SK-OV-3 ovarian = test system: SK-OV-3 ovarian
MOLT-4 leukemia = test system: MOLT-4 leukemia
SNB-19 CNS = test system: SNB-19 CNS
UACC-62 melanoma = test system: UACC-62 melanoma
HT29 colon = test system: HT29 colon
EKVX NSCLC = test system: EKVX NSCLC
NCI-H23 lung = test system: NCI-H23 lung
A549 NSCLC = test system: A549 NSCLC
UACC-257 melanoma = test system: UACC-257 melanoma
HL-60(TB) leukemia = test system: HL-60(TB) leukemia
COLO 205 colon = test system: COLO 205 colon
MDA-N = test system: MDA-N
HCT-15 colon = test system: HCT-15 colon
SF-539 CNS = test system: SF-539 CNS
MCF7 breast = test system: MCF7 breast
HCT-116 colon = test system: HCT-116 colon
SK-MEL-5 melanoma = test system: SK-MEL-5 melanoma
DU-145 prostate = test system: DU-145 prostate
IGROV1 ovarian = test system: IGROV1 ovarian
OVCAR-8 ovarian = test system: OVCAR-8 ovarian
T-47D breast = test system: T-47D breast
OVCAR-4 ovarian = test system: OVCAR-4 ovarian
UO-31 renal = test system: UO-31 renal
OVCAR-5 ovarian = test system: OVCAR-5 ovarian
786-0 renal = test system: 786-0 renal
U251 CNS = test system: U251 CNS
KM12 colon = test system: KM12 colon
NCI-H460 lung = test system: NCI-H460 lung
SK-MEL-28 melanoma = test system: SK-MEL-28 melanoma
LOX IMVI melanoma = test system: LOX IMVI melanoma
SF-295 CNS = test system: SF-295 CNS
K-562 leukemia = test system: K-562 leukemia
M14 melanoma = test system: M14 melanoma
NCI-H522 lung = test system: NCI-H522 lung
SR leukemia = test system: SR leukemia
SN12C renal = test system: SN12C renal
NCI/ADR-RES ovarian = test system: NCI/ADR-RES ovarian
PC-3 prostate = test system: PC-3 prostate
HCC-2998 colon = test system: HCC-2998 colon
BT-549 breast = test system: BT-549 breast
SNB-75 CNS = test system: SNB-75 CNS
HOP-62 NSCLC = test system: HOP-62 NSCLC
CCRF-CEM leukemia = test system: CCRF-CEM leukemia
HOP-92 NSCLC = test system: HOP-92 NSCLC
SF-268 CNS = test system: SF-268 CNS
HS 578T breast = test system: HS 578T breast
A498 renal = test system: A498 renal
ACHN renal = test system: ACHN renal
CAKI-1 renal = test system: CAKI-1 renal
MALME-3M melanoma = test system: MALME-3M melanoma
SK-MEL-2 melanoma = test system: SK-MEL-2 melanoma
RPMI-8226 leukemia = test system: RPMI-8226 leukemia

SCc1ccc(CS)s1
TGI (SW-620 colon): > 100 µM
TGI (MDA-MB-231 breast): > 100 µM
TGI (MDA-MB-435): > 100 µM
TGI (OVCAR-3 ovarian): > 100 µM
TGI (TK-10 renal): > 100 µM
TGI (SK-OV-3 ovarian): > 100 µM
TGI (MOLT-4 leukemia): > 100 µM
TGI (SNB-19 CNS): > 100 µM
TGI (UACC-62 melanoma): > 100 µM
TGI (HT29 colon): > 100 µM
TGI (EKVX NSCLC): > 100 µM
TGI (NCI-H23 lung): > 100 µM
TGI (A549 NSCLC): > 100 µM
TGI (UACC-257 melanoma): > 100 µM
TGI (HL-60(TB) leukemia): > 100 µM
TGI (COLO 205 colon): > 100 µM
TGI (MDA-N): > 100 µM
TGI (HCT-15 colon): > 100 µM
TGI (SF-539 CNS): > 100 µM
TGI (MCF7 breast): > 100 µM
TGI (HCT-116 colon): > 100 µM
TGI (SK-MEL-5 melanoma): > 100 µM
TGI (DU-145 prostate): > 100 µM
TGI (IGROV1 ovarian): > 100 µM
TGI (OVCAR-8 ovarian): > 100 µM
TGI (T-47D breast): > 100 µM
TGI (OVCAR-4 ovarian): > 100 µM
TGI (UO-31 renal): > 100 µM
TGI (OVCAR-5 ovarian): > 100 µM
TGI (786-0 renal): > 100 µM
TGI (U251 CNS): > 100 µM
TGI (KM12 colon): > 100 µM
TGI (NCI-H460 lung): > 100 µM
TGI (SK-MEL-28 melanoma): > 100 µM
TGI (LOX IMVI melanoma): > 100 µM
TGI (SF-295 CNS): > 100 µM
TGI (K-562 leukemia): > 100 µM
TGI (M14 melanoma): > 100 µM
TGI (NCI-H522 lung): > 100 µM
TGI (SR leukemia): > 100 µM
TGI (SN12C renal): > 100 µM
TGI (NCI/ADR-RES ovarian): > 100 µM
TGI (PC-3 prostate): > 100 µM
TGI (HCC-2998 colon): > 100 µM
TGI (BT-549 breast): > 100 µM
TGI (SNB-75 CNS): > 100 µM
TGI (HOP-62 NSCLC): > 100 µM
TGI (CCRF-CEM leukemia): > 100 µM
TGI (HOP-92 NSCLC): > 100 µM
TGI (SF-268 CNS): > 100 µM

CCN(CC)c1ccc2cc(-c3nnc(-c4ccccc4O)o3)c(=O)oc2c1
TGI (SW-620 colon): 26.9 µM
TGI (HS 578T breast): 57.6 µM
TGI (MDA-MB-435): 32.7 µM
TGI (OVCAR-3 ovarian): 21.1 µM
TGI (A498 renal): 29.6 µM
TGI (SK-OV-3 ovarian): > 100 µM
TGI (MOLT-4 leukemia): 25.9 µM
TGI (SNB-19 CNS): 26.9 µM
TGI (UACC-62 melanoma): 23.4 µM
TGI (ACHN renal): 24.2 µM
TGI (HT29 colon): 26.3 µM
TGI (EKVX NSCLC): 43.4 µM
TGI (CAKI-1 renal): 25.3 µM
TGI (NCI-H23 lung): 24.8 µM
TGI (A549 NSCLC): 29.1 µM
TGI (UACC-257 melanoma): 35.1 µM
TGI (HL-60(TB) leukemia): 22.7 µM
TGI (COLO 205 colon): 33.6 µM
TGI (MDA-N): 30.7 µM
TGI (HCT-15 colon): 29.4 µM
TGI (SF-539 CNS): 22.4 µM
TGI (MCF7 breast): > 100 µM
TGI (MALME-3M melanoma): 33.6 µM
TGI (HCT-116 colon): 21.9 µM
TGI (SK-MEL-5 melanoma): 25.2 µM
TGI (DU-145 prostate): 23.6 µM
TGI (IGROV1 ovarian): 13.9 µM
TGI (OVCAR-8 ovarian): 11.9 µM
TGI (SK-MEL-2 melanoma): 30.2 µM
TGI (OVCAR-4 ovarian): 27.5 µM
TGI (UO-31 renal): 22.7 µM
TGI (OVCAR-5 ovarian): 35 µM
TGI (786-0 renal): 21.9 µM
TGI (U251 CNS): 21 µM
TGI (KM12 colon): 37.8 µM
TGI (NCI-H460 lung): 27.9 µM
TGI (SK-MEL-28 melanoma): 32.3 µM
TGI (LOX IMVI melanoma): 20.1 µM
TGI (SF-295 CNS): 29.7 µM
TGI (K-562 leukemia): > 100 µM
TGI (M14 melanoma): 24.3 µM
TGI (NCI-H522 lung): 25.5 µM
TGI (SR leukemia): 33.7 µM
TGI (NCI/ADR-RES ovarian): 44.1 µM
TGI (PC-3 prostate): 22.4 µM
TGI (HCC-2998 colon): 72.6 µM
TGI (RPMI-8226 leukemia): > 100 µM
TGI (BT-549 breast): 24.4 µM
TGI (HOP-62 NSCLC): 18.5 µM
TGI (CCRF-CEM leukemia): 8.63 µM
TGI (SF-268 CNS): 28.3 µM
